Data from patent US6586425B2, “Cytoskeletal active agents for glaucoma therapy” (Wisconsin Alumni Research Foundation, priority 1996, dated 2003).
Where “and” joins values, the source holds several entries; their conditions need not be identical. Identical values can stand only once. Like-named read-outs stand apart in the source and are kept apart here.

Legend:
living monkey eye [1] = assay type: in vivo, cynomolgus monkeys (Macaca fascicularis); details: for (LAT-B/BL)/(Veh/BL) / Facility LAT-B/Vehicle / Facility, LAT-B eye: 2 hr wait
living monkey eyes [2] = assay: Aqueous humor flow and corneal endothelial transfer coefficient ka by fluorophotometry; details: for AHF Rx, LAT-B/Vehicle / AHF Rx/BL, LAT-B eye / AHF Rx/BL, LAT-B/Vehicle / ka Rx, LAT-B eye / ka Rx, LAT-B/Vehicle / ka Rx/BL, LAT-B eye / ka Rx/BL, LAT-B/Vehicle: 4.0 μg LAT-B topical
living monkey eyes [3] = assay: Aqueous humor protein concentration (Lowry method); assay type: in vivo, cynomolgus monkeys (Macaca fascicularis); details: 4 μg LAT-B topical, insignificant
Description: Approximately 5.5 hr after LAT-A and vehicle (25% DMSO) administration, or approximately 6.5 hr after LAT-B and vehicle (25% DMSO) administration, when AHF measurements had been completed, a sample of AH was obtained under a Zeiss surgical microscope, using a 30-gauge needle connected via polyethylene tubing to a tuberculin syringe. The needle was threaded through the corneal stroma for 6 mm, then directed into the AC so that the wound was self-sealing. AH entered the tubing by very gentle suction with the tuberculin syringe; only occasionally was brief mild pressure on the cornea with a needle holder required to promote the initial flow of AH into the tubing via the very thin needle. Approximately 60-80 μl of AH was removed, leaving a shallow but not completely flattened AC. In separate protocols with different monkeys, AH was similarly obtained 2 hr after 42 μg LAT-A or 1 hr after 4 μg LAT-B to one eye and vehicle to the opposite eye. The AH samples were stored at −20° C. for up to 24 hr. The protein concentration in each sample was assayed by the Lowry method, as known in the art (See e.g., Lowry et al., J. Biol. Chem., 193:265-275[1951]; and Peterson et al., Anal. Biochem., 100:201-220[1979]), in duplicate, and the result averaged. Duplicate sets of protein standards containing 0, 1, 3, 5, 10, 20, 40, or 60 μg bovine serum albumin (BSA) were assayed by the same method and results averaged and graphed to give a linear equation that was used to estimate the protein content in the AH samples. The optical density of each sample was measured at 660 nm using a Spectronic 20 Spectrophotometer (Bausch and Lomb).

living monkey eye [4] = details: in vivo
cornea = assay: Corneal thickness by ultrasonic pachymetry; assay type: in vivo, cynomolgus monkeys (Macaca fascicularis)
Description: Corneal thickness was measured using a DGH-1000 ultrasonic pachymeter (DGH Technology). All eyes were examined by biomicroscopy prior to baseline measurements. Monkeys were placed supine in head holders. The central cornea was measured once and the peripheral cornea was measured four times midway between the center and the limbus on the vertical and horizontal axes. For each point in each eye, two baseline thickness measurements were averaged, and 4.0 μg LAT-B or 25% DMSO was administered to opposite eyes in the LAT-B protocol, or 25% DMSO or Bárány's administered to opposite eyes in the DMSO control protocol. The eyelids were held open manually during and for 5 min. after drug or vehicle administration. Corneal thickness was measured every 30-min. for 6 hr and again at 24 hr.

[5] = LAT-B 0.8 μg topical, 0-30 min, n=5
[6] = LAT-B 0.8 μg topical, 30-60 min, n=5
[7] = LAT-B 0.8 μg topical, 60-90 min, n=5
[8] = LAT-B 4.0 μg topical, 0-30 min, n=5
[9] = LAT-B 4.0 μg topical, 30-60 min, n=5
[10] = LAT-B 4.0 μg topical, 60-90 min, n=5

C/C1=C/C(=O)O[C@@H]2C[C@@H](CC[C@H](C)/C=C\CC1)O[C@@](O)([C@@H]1CSC(=O)N1)C2 [LAT-B]
initial post-drug facility increase over final baseline value (living monkey eye [1]; 2 hr after LAT-B 4.0 μg topical, n=5): 173±73%
PRxf (final post-drug) facility, LAT-B eye (living monkey eye [1]; LAT-B 0.8 μg Top, n=5): 1.54 ± 0.33 μl min^−1 mmHg^−1
PRxf facility, LAT-B/Veh (living monkey eye [1]; LAT-B 0.8 μg Top, n=5): 2.82 ± 1.22
PRxf/BLf, LAT-B eye (living monkey eye [1]; LAT-B 0.8 μg Top, n=5): 3.78 ± 0.70
PRxf/BLf, LAT-B/Veh (living monkey eye [1]; LAT-B 0.8 μg Top, n=5): 2.12 ± 0.64
PRxf/PRxi, LAT-B eye (living monkey eye [1]; LAT-B 0.8 μg Top, n=5): 3.41 ± 0.73
PRxf/PRxi, LAT-B/Veh (living monkey eye [1]; LAT-B 0.8 μg Top, n=5): 1.50 ± 0.28
PRxi (first post-drug) facility, LAT-B eye (living monkey eye [1]; LAT-B 0.8 μg Top, n=5): 0.47 ± 0.08 μl min^−1 mmHg^−1
PRxi facility, LAT-B/Veh (living monkey eye [1]; LAT-B 0.8 μg Top, n=5): 1.65 ± 0.38
PRxi/BLf, LAT-B eye (living monkey eye [1]; LAT-B 0.8 μg Top, n=5): 1.16 ± 0.11
PRxi/BLf, LAT-B/Veh (living monkey eye [1]; LAT-B 0.8 μg Top, n=5): 1.36 ± 0.16
(LAT-B/BL)/(Veh/BL) (living monkey eye [1]; [5]): 1.84
Facility LAT-B/Vehicle (living monkey eye [1]; [5]): 2.30
Facility, LAT-B eye (living monkey eye [1]; [5]): 0.80 μl min^−1 mmHg^−1
(LAT-B/BL)/(Veh/BL) (living monkey eye [1]; [6]): 2.59
Facility LAT-B/Vehicle (living monkey eye [1]; [6]): 3.37
Facility, LAT-B eye (living monkey eye [1]; [6]): 1.35 μl min^−1 mmHg^−1
(LAT-B/BL)/(Veh/BL) (living monkey eye [1]; [7]): 2.37
Facility LAT-B/Vehicle (living monkey eye [1]; [7]): 3.14
Facility, LAT-B eye (living monkey eye [1]; [7]): 1.50 μl min^−1 mmHg^−1
facility increase, averaged over 90 min (living monkey eye [1]; LAT-B 0.8 μg topical, n=5, p=NS): 123±67%
PRxf (final post-drug) facility, LAT-B eye (living monkey eye [1]; LAT-B 4.0 μg Top, n=5): 2.03 ± 0.31 μl min^−1 mmHg^−1
PRxf facility, LAT-B/Veh (living monkey eye [1]; LAT-B 4.0 μg Top, n=5): 3.92 ± 0.58^∥
PRxf/BLf, LAT-B eye (living monkey eye [1]; LAT-B 4.0 μg Top, n=5): 6.19 ± 0.48
PRxf/BLf, LAT-B/Veh (living monkey eye [1]; LAT-B 4.0 μg Top, n=5): 3.69 ± 0.55^∥
PRxf/PRxi, LAT-B eye (living monkey eye [1]; LAT-B 4.0 μg Top, n=5): 3.16 ± 1.08
PRxf/PRxi, LAT-B/Veh (living monkey eye [1]; LAT-B 4.0 μg Top, n=5): 1.80 ± 0.53
PRxi (first post-drug) facility, LAT-B eye (living monkey eye [1]; LAT-B 4.0 μg Top, n=5): 0.98 ± 0.27 μl min^−1 mmHg^−1
PRxi facility, LAT-B/Veh (living monkey eye [1]; LAT-B 4.0 μg Top, n=5): 3.19 ± 1.16
PRxi/BLf, LAT-B eye (living monkey eye [1]; LAT-B 4.0 μg Top, n=5): 3.03 ± 0.94
PRxi/BLf, LAT-B/Veh (living monkey eye [1]; LAT-B 4.0 μg Top, n=5): 2.73 ± 0.73
(LAT-B/BL)/(Veh/BL) (living monkey eye [1]; [8]): 3.68
Facility LAT-B/Vehicle (living monkey eye [1]; [8]): 4.49
Facility, LAT-B eye (living monkey eye [1]; [8]): 1.64 μl min^−1 mmHg^−1
(LAT-B/BL)/(Veh/BL) (living monkey eye [1]; [9]): 4.03
Facility LAT-B/Vehicle (living monkey eye [1]; [9]): 4.74
Facility, LAT-B eye (living monkey eye [1]; [9]): 2.19 μl min^−1 mmHg^−1
(LAT-B/BL)/(Veh/BL) (living monkey eye [1]; [10]): 3.68
Facility LAT-B/Vehicle (living monkey eye [1]; [10]): 4.22
Facility, LAT-B eye (living monkey eye [1]; [10]): 2.11 μl min^−1 mmHg^−1
facility increase, averaged over 90 min (living monkey eye [1]; LAT-B 4.0 μg topical, n=5): 272±45%
effect on AHF (living monkey eyes [2]; 4 μg LAT-B topical, first 3 hr): small, insignificant increase in AHF
increase in ka (living monkey eyes [2]; 4 μg LAT-B topical, first 3 hr): 58±20%
increase in ka (living monkey eyes [2]; 4 μg LAT-B topical, overall 6 hr, n=6): 39±5%
AHF Rx, LAT-B/Vehicle (living monkey eyes [2]; hour 0.5 to 3.0, n=6): 1.33
AHF Rx/BL, LAT-B eye (living monkey eyes [2]; hour 0.5 to 3.0, n=6): 1.31
AHF Rx/BL, LAT-B/Vehicle (living monkey eyes [2]; hour 0.5 to 3.0, n=6): 1.33
ka Rx, LAT-B eye (living monkey eyes [2]; hour 0.5 to 3.0, n=6): 0.00735 min⁻¹
ka Rx, LAT-B/Vehicle (living monkey eyes [2]; hour 0.5 to 3.0, n=6): 1.62
ka Rx/BL, LAT-B eye (living monkey eyes [2]; hour 0.5 to 3.0, n=6): 1.44
ka Rx/BL, LAT-B/Vehicle (living monkey eyes [2]; hour 0.5 to 3.0, n=6): 1.58
AHF Rx, LAT-B/Vehicle (living monkey eyes [2]; hour 0.5 to 6.0, n=6): 1.14
AHF Rx/BL, LAT-B eye (living monkey eyes [2]; hour 0.5 to 6.0, n=6): 1.04
AHF Rx/BL, LAT-B/Vehicle (living monkey eyes [2]; hour 0.5 to 6.0, n=6): 1.16
ka Rx, LAT-B eye (living monkey eyes [2]; hour 0.5 to 6.0, n=6): 0.00648 min⁻¹
ka Rx, LAT-B/Vehicle (living monkey eyes [2]; hour 0.5 to 6.0, n=6): 1.34
ka Rx/BL, LAT-B eye (living monkey eyes [2]; hour 0.5 to 6.0, n=6): 1.33
ka Rx/BL, LAT-B/Vehicle (living monkey eyes [2]; hour 0.5 to 6.0, n=6): 1.39
AHF Rx, LAT-B/Vehicle (living monkey eyes [2]; hour 3.5 to 6.0, n=6): 0.93
AHF Rx/BL, LAT-B eye (living monkey eyes [2]; hour 3.5 to 6.0, n=6): 0.84
AHF Rx/BL, LAT-B/Vehicle (living monkey eyes [2]; hour 3.5 to 6.0, n=6): 0.91
ka Rx, LAT-B eye (living monkey eyes [2]; hour 3.5 to 6.0, n=6): 0.0063 min⁻¹
ka Rx, LAT-B/Vehicle (living monkey eyes [2]; hour 3.5 to 6.0, n=6): 1.21
ka Rx/BL, LAT-B eye (living monkey eyes [2]; hour 3.5 to 6.0, n=6): 1.31
ka Rx/BL, LAT-B/Vehicle (living monkey eyes [2]; hour 3.5 to 6.0, n=6): 1.25
[Protein]AC increase vs contralateral control eyes (living monkey eyes [3]; 1 hr, n=4): 80±51%
[Protein]AC increase vs contralateral control eyes (living monkey eyes [3]; 6.5 hr, n=6): 11±24%
BL2/BL1, LAT-B eye (living monkey eye [4]): 0.90 ± 0.05
BL2/BL1, LAT-B/Veh (living monkey eye [4]): 0.96 ± 0.06
Baseline facility BL2, LAT-B eye (living monkey eye [4]): 0.33 ± 0.03 μl min^−1 mmHg^−1
Baseline facility BL2, LAT-B/Veh (living monkey eye [4]): 1.01 ± 0.08
baseline facility vs baseline immediately prior to LAT-B (living monkey eye [4]): not significantly different
facility increase, average over 90 min (living monkey eye [4]): 456±128%
initial post-drug facility increase over final baseline value (living monkey eye [4]): 379±125%
potency relative to LAT-A in the live monkey TM (living monkey eye [4]): at least 10 fold
central corneal thickness increase vs contralateral control eyes (maximum) (cornea; 4.0 μg LAT-B topical, 3.5 hr, n=8): ~47 μm and 47±17 μm
central and peripheral corneal thickness (cornea; 4.0 μg LAT-B topical, 24 hr): returned to baseline
central cornea thicker compared to normal monkey cornea (cornea; LAT-B, hour 3.5 (maximal change)): ~10%
